Measured values as given in patent US20110144345A1, “SULFOXYIMINO-SUBSTITUTED BENZOYL DERIVATIVE AND HERBICIDE” (NIPPON SODA CO., LTD., priority 2008, published 2011).

Key:
Type in all cases: in vivo
Parameters in all cases: scale not given here
Echinochloa crus-galli = test: Paddy pot test, herbicidal effect on Echinochloa crus-galli; conditions: Screening, 63 g/ha, applied at 1.5-leaf stage, examined after 3 weeks
Description: (§1) Plastic pots having an area of 100 cm^2 and a depth of 10 cm were filled with paddy soil which is puddled by adding water, and seeds of Echinochloa crus-galli and Scirpus juncoides were planted in the pots. After seeding, rice plants at the 2.5-leaf stage were transplanted and the pots were filled with water. The rice plants were grown in a greenhouse. […] The herbicidal effects and harmful effects on the rice plants were examined after 3 weeks. Herbicidal effects were examined according to the examination criteria described below and were represented by the herbicidal index. [table] […] [formula]

Scirpus juncoides = test: Paddy pot test, herbicidal effect on Scirpus juncoides; conditions: Screening, 63 g/ha, examined after 3 weeks
Description: as §1

rice plants = test: Paddy pot test, harmful effects on transplanted rice plants; conditions: Screening, 63 g/ha, applied at Echinochloa crus-galli 1.5-leaf stage, examined after 3 weeks
Description: as §1

SMILES | Echinochloa crus-galli (herbicidal index) (Echinochloa crus-galli) | Scripus juncoides (herbicidal index) (Scirpus juncoides) | Rice (harmful effects on the rice plants, index) (rice plants)
COc1ccc(C(=O)c2cnn(C)c2OS(=O)(=O)c2ccc(C)cc2)c(Cl)c1N=S1(=O)CCCCC1 [Example 106] | 10 | 8 | 0
COc1ccc(C(=O)c2cnn(C)c2OCc2ccccc2)c(Cl)c1N=S1(=O)CCCCC1 [Example 107] | 7 | 7 | 0
C=Cc1ccc(C(=O)c2cnn(C)c2O)c(Cl)c1N=S1(=O)CCCCC1 [Example 108] | 10 | 8 | 0
Cc1ccc(C(=O)C2=C(O)CCCC2=O)c(C)c1N=S1(=O)CCCCC1 [Example 110] | 10 | 8 | 0
Cc1ccc(C(=O)c2c(C)nn(C)c2OCc2ccc3ccccc3c2)c(C)c1N=S1(=O)CCCCC1 [Example 111] | 6 | 8 | 0
COc1ccc(C(=O)c2cnn(C)c2OCc2ccc3ccccc3c2)c(F)c1N=S1(=O)CCCCC1 [Example 113] | 7 | 6 | 0
COc1ccc(C(=O)c2cnn(C)c2OCC(=O)c2ccc([N+](=O)[O-])cc2)c(Cl)c1N=S1(=O)CCCCC1 [Example 114] | 10 | 8 | 0
COc1ccc(C(=O)c2cnn(C)c2OCC(=O)c2ccccc2)c(Cl)c1N=S1(=O)CCCCC1 [Example 116] | 7 | 8 | 0
Cn1ncc(C(=O)c2ccc(CO)c(N=S3(=O)CCCCC3)c2Cl)c1O [Example 117] | 5 | 8 | 0
COc1ccc(C(=O)c2cnn(C)c2O)c(Cl)c1N=S(C)(=O)c1ccccc1 (stereo not drawn) [Example 118] | 7 | 8 | 0
COc1ccc(C(=O)c2cnn(C)c2O)c(Cl)c1N=S(C)(=O)Cc1ccccc1 (stereo not drawn) [Example 119] | 10 | 8 | 0
COc1ccc(C(=O)C2=C(O)CCCC2=O)c(Cl)c1N=S(C)(=O)Cc1ccccc1 (stereo not drawn) [Example 120] | 8 | 5 | 0
COc1ccc(C(=O)c2cnn(C)c2OCc2ccc3ccccc3c2)c(Cl)c1N=S(C)(=O)Cc1ccccc1 (stereo not drawn) [Example 121] | 7 | 7 | 0
COc1ccc(C(=O)c2cnn(C)c2OCc2ccc3ccccc3c2)c(Cl)c1N=S(C)(=O)c1ccccc1 (stereo not drawn) [Example 122] | 10 | 6 | 0
COc1ccc(C(=O)c2cnn(C)c2OCc2ccc3ccccc3c2)c(Cl)c1N=S1(=O)CCCC1 [Example 129] | 7 | 8 | 0
CCCS(=O)(=O)Oc1c(C(=O)c2ccc(OC)c(N=S3(=O)CCCCC3)c2Cl)cnn1C [Example 130] | 10 | 8 | 0
COc1c(N=S2(=O)CCCCC2)cccc1C(=O)c1cnn(C)c1OCc1ccc2ccccc2c1 [Example 132] | 6 | 8 | 0
